Results as given in US6284769A, “Nonpeptide kappa opioid receptor antagonists” (The Board of Trustees of the University of Illinois, priority 1999, dated 2001).
pEC50, pKi: −log10 of the molar value. Read-outs that look alike come from different tables or passages of the source.

Assays:
[1] = target: T1, δ opioid receptor (Homo sapiens, UniProt P41143); assay: Receptor binding, [3H]Cl-DPDPE, membranes of transfected CHO cells; conditions: CHO cell membranes, radioligand [3H]Cl-DPDPE, 1 hour at 25° C., SEM in brackets
T1 construct: expressed in transfected cells; host or cells: Chinese hamster ovary (CHO) cells, membranes
Description: (§1) Opioid receptor activity studies were carried out by the method of the Opiate Treatment Discovery Program of the National Institutes of Health. Receptor binding studies were conducted on Chinese hamster ovary (CHO) cells which had been transfected with human DNA encoding for the μ, δ, and κ opiate receptors, respectively.
(§2) The cell line expressing the μ opioid receptor is maintained in Ham's F-12 medium supplemented with 10% fetal bovine serum and 400 μg/ml GENETICIN (G418 sulfate). The cell line expressing the δ opioid receptor is maintained in Ham's F-12 medium supplemented with 10% fetal bovine serum and 500 μg/ml hygromycin B. The cell line expressing the κ opioid receptor is maintained in Dulbecco's minimal essential medium (DMEM) supplemented with 10% fetal bovine serum, 400 μg/ml GENETICIN (G418 sulfate), and 0.1% penicillin/streptomycin. All cell lines are grown to full confluency, then harvested for membrane preparation. The membrane used for functional assays is prepared in buffer A (20 mM HEPES, 10 mM MgCl2, and 100 mM NaCl at pH 7.4) and the membrane for binding assays is prepared in 50 mM Tris buffer, pH 7.7. Cells are harvested by scraping the plates with a rubber policeman and then centrifuged at 500 times gravity for 10 minutes. […]
(§3) Samples were filtered over glass fiber filters and counted as described for the binding assays.

[2] = target: T2, μ opioid receptor (Homo sapiens, UniProt P35372); assay: Receptor binding, [3H]DAMGO, membranes of transfected CHO cells
T2 construct: expressed in transfected cells; host or cells: Chinese hamster ovary (CHO) cells, membranes
Description: as §1
(§4) The cell line expressing the μ opioid receptor is maintained in Ham's F-12 medium supplemented with 10% fetal bovine serum and 400 μg/ml GENETICIN (G418 sulfate). The cell line expressing the δ opioid receptor is maintained in Ham's F-12 medium supplemented with 10% fetal bovine serum and 500 μg/ml hygromycin B. The cell line expressing the κ opioid receptor is maintained in Dulbecco's minimal essential medium (DMEM) supplemented with 10% fetal bovine serum, 400 μg/ml GENETICIN (G418 sulfate), and 0.1% penicillin/streptomycin. All cell lines are grown to full confluency, then harvested for membrane preparation. The membrane used for functional assays is prepared in buffer A (20 mM HEPES, 10 mM MgCl2, and 100 mM NaCl at pH 7.4) and the membrane for binding assays is prepared in 50 mM Tris buffer, pH 7.7. Cells are harvested by scraping the plates with a rubber policeman and then centrifuged at 500 times gravity for 10 minutes. The cell pellet is suspended in buffer A or Tris buffer, homogenized in a Polytron Homogenizer, and centrifuged at 20,000 times gravity for 20 minutes. The cell pellet is washed in buffer A or Tris, centrifuged at 20,000 times gravity for another 20 minutes, and, finally, suspended in a small amount of buffer to determine protein content. Membrane is aliquoted in small vials at a concentration of 6 mg/ml per vial, stored at -70° C., and used as needed.
Binding assays were conducted using [^3 H]DAMGO, [^3 H]Cl-DPDPE and [^3 H]U69,593 as labelling ligands specific for μ, δ and κ opioid receptors, respectively. DAMGO is Tyr-D-Ala-Gly-NMePhe-[…]. The structural formulae for U69,593 and Cl-DPDPE are [drawing 10] […]
as §3

[3] = target: T3, κ opioid receptor (Homo sapiens, UniProt P41145); assay: Receptor binding, [3H]U69,593, membranes of transfected CHO cells; conditions: CHO cell membranes, radioligand [3H]U69,593, 1 hour at 25° C., SEM in brackets
T3 construct: expressed in transfected cells; host or cells: Chinese hamster ovary (CHO) cells, membranes
Description: as §1
The cell line expressing the μ opioid receptor is maintained in Ham's F-12 medium supplemented with 10% fetal bovine serum and 400 μg/ml GENETICIN (G418 sulfate). […]
Cell membranes were incubated with the appropriate radioligand and unlabeled compounds of Example 1 in a total volume of 200 μl in 96-well plates, usually for 1 hour at 25° C. […] Filters were dried overnight before radioactivity levels were determined. Nonspecific binding was determined by using 1.0 μM of the unlabeled counterpart of each radioligand.
(§5) Analysis of the data for IC50 values and Hill coefficients was performed using the program PRISM. Opioid receptor binding constants, Ki, were calculated using the Cheng-Prusoff transformation, Ki=IC50 /(1+L/Kd), where L is radioligand concentration and Kd is the binding affinity of the radioligand, as determined previously by saturation analysis. […] Samples were filtered over glass fiber filters and counted as described for the binding assays. […]

[4] = test system: δ receptor of the T-cell; assay: Stimulatory activity at the δ receptor of the T-cell of the immune system; assay type: cell-based; conditions: result in words
[5] = target: T1, δ opioid receptor; assay: [35S]GTPγS agonist/antagonist assay, δ-CHO membrane; assay type: biochemical
Description: as §1, §4, §3

[6] = target: T2, μ opioid receptor; assay: [35S]GTPγS agonist/antagonist assay, μ-CHO membrane; assay type: biochemical
Description: as §1, §2, §5
(§6) Agonist activity at μ, δ and κ receptors is reported as % stimulation relative to the respective agonists DAMGO, Cl-DPDPE, and U69,593. […] A full Schild analysis was conducted, utilizing a full agonist dose response curve in the presence of at least three concentrations of the antagonist. pA2 values and Schild slopes were determined using a statistical program designed for these experiments.

[7] = target: T3, κ opioid receptor; assay: [35S]GTPγS agonist/antagonist assay with Schild analysis, κ-CHO membrane; assay type: biochemical
Description: as §1, §4
as §5, with “analysis. See Y. C. Cheng et al., Biochem. Pharmacol., 22, p. 3099-3102 (1973).” for “analysis.”
as §6

[8] = In vivo analgesic testing on rats; conditions: result in words
[9] = [35S]GTPγS, 60 min at 25° C., SEM in brackets

T1 sequence (P41143 whole entry): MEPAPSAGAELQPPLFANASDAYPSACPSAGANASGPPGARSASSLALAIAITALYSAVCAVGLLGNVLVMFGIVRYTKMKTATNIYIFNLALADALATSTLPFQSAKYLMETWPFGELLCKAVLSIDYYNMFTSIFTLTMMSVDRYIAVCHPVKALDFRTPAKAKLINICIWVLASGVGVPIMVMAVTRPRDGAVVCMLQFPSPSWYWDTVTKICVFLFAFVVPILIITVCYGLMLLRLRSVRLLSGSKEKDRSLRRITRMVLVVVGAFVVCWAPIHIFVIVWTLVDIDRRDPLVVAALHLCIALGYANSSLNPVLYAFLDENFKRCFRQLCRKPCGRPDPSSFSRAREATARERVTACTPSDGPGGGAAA
T3 sequence (P41145 whole entry): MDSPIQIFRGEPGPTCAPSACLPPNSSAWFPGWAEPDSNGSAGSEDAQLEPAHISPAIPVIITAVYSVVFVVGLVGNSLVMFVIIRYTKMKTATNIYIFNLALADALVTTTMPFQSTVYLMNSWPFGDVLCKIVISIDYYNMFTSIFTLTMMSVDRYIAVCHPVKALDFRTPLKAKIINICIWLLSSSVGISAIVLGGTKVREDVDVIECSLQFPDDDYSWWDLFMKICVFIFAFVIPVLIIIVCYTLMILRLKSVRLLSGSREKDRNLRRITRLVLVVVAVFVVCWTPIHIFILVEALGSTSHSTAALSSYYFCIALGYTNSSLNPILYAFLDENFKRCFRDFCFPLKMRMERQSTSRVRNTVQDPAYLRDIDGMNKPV
T2 sequence (P35372 whole entry): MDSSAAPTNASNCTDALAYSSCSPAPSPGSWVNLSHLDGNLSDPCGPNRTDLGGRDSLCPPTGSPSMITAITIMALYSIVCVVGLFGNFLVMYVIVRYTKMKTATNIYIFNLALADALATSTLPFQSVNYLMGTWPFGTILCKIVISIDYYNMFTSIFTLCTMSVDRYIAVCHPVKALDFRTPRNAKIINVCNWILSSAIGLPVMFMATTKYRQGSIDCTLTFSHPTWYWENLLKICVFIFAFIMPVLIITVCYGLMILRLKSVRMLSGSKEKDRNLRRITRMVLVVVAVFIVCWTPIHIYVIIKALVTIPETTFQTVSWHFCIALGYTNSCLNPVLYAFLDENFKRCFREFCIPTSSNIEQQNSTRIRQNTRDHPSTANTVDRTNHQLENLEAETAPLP

## CN1CC[C@]23c4c5ccc(O)c4O[C@H]2c2n[nH]cc2C[C@@]3(O)[C@H]1C5 [Example 1, 17-Methyl-6,7-dehydro-3,14-hydroxy-4,5α-epoxy-6,7:5',4'(6,7: 3',4')pyrazolomorphin (tautomers)]
[1]
  pKi: 7.72
[2]; CHO cell membranes, human μ receptor, radioligand [3H]DAMGO, 1 hour at 25° C., SEM in brackets
  pKi: 8.43
[2]; ratio of binding affinities, μ versus δ
  Selectivity: affinity for μ over δ: about 7 times
[2]; ratio of binding affinities, μ versus κ
  Selectivity: affinity for μ over κ: about 7 times
[3]
  pKi: 7.91
[4]
  Stimulatory activity at the δ receptor of the T-cell: weak stimulatory activity
[5]; 1 h, [35S]GTPγS, relative to full agonist Cl-DPDPE, read-out: % Stimulation δ-CHO membrane
  Emax: 75.2%
[5]; [9]
  pEC50: 7.60
[5]; result in words
  Agonist/antagonist property at the δ receptor: agonist
[6]; 1 h, [35S]GTPγS, relative to full agonist DAMGO, read-out: % Stimulation μ-CHO membrane
  Emax: 80.3%
[6]; [9]
  pEC50: 7.72
[6]; result in words
  Agonist/antagonist property at the μ receptor: agonist
[7]; [35S]GTPγS, antagonism, agonist U69,593, SEM in brackets, read-out: Ke (SEM) κ-CHO membrane
  Kb: 59.3 nM
[7]; full Schild analysis, κ-CHO membrane
  Schild slope: -0.92±0.32
[7]; full Schild analysis, κ-CHO membrane, read-out: pA2 value (converted)
  Kb: 51.3 nM
[7]; result in words
  Agonist/antagonist property at the κ receptor: antagonist
[8]
  Analgesic activity: potent analgesic activity
  Duration of analgesic activity: long duration of activity
